From ChEMBL document CHEMBL1122277, “l-1,2,3,4-Tetrahydro-8-methoxy-5-(methylthio)-2-naphthalenamine: a potent and selective agonist at alpha 1-adrenoceptors” (J Med Chem, 1983)

How the values were obtained:
Type in all cases: functional
[1] = species on record: Oryctolagus cuniculus; test: (§1) Alpha-1-adrenergic potency measured in the isolated rabbit ear artery
[2] = species on record: Oryctolagus cuniculus; test: as §1; remark: listed apart in the source
[3] = tested on: Oryctolagus cuniculus; test: Blockade of the constrictor response to exogenously administered L-norepinephrine

SMILES | EC50 [1] [nM] | EC50 [2] [nM] | KB [3] [nM]
COc1ccc(SC)c2c1CC(N)CC2 (centres undefined) | 9 | 60 | –
COC(=O)[C@@H]1[C@H]2C[C@H]3c4[nH]c5ccccc5c4CCN3C[C@@H]2CC[C@@H]1O [YOHIMBINE] | – | – | 4000
COc1cc2nc(N3CCN(C(=O)c4ccco4)CC3)nc(N)c2cc1OC [PRAZOSIN] | – | – | 2.7
